# Laboratory results as given in patent publication EP0517262A1, “Trifluorothymidine derivatives, process for producing the same and anti-cancer agent containing the same” (priority 1991, dated 1992).
# Experiments:
# Meth A fibrosarcoma = assay: Pharmacological Test 1 (anti-cancer activity): tumor weight ratio T/C of subcutaneously transplanted tumor; type: in vivo, mice; details: Mus musculus, 336 h
# Procedure: (§1) Female CDF₁ mice of 6 weeks old were used. As the tumor, Meth A fibrosarcoma was used.
# (§2) To the right abdomen of each mouse, 2 x 10⁶ tumor cells were subcutaneously transplanted. On the next day (day 1), the mice were randomly grouped and the suspension was compulsively administered to the mice by using an oral sound for successive 7 days (day 1 - day 7).
# On day 14, the tumors were removed and weighed. The tumor growth ratio (%) was calculated according to the following equation: Tumor Growth Ratio (%) = T/C x 100 [formula] wherein T means the average weight of tumor of the treated group and C means the average weight of tumor of the control group.
# [1] = Pharmacological Test 1: body weight change of the tumor-bearing mice; details: day 1 - day 7, female CDF1 mice with Meth A fibrosarcoma
# Source text: as §1, §2
# L1210 leukemia = details: experimental model tumor; Cancer Research, Vol. 24, p.1979, 1964; cited from earlier work
# adenocarcinoma-755 = details: experimental model tumor; Cancer Research, Vol. 24, p.1979, 1964; cited from earlier work
# [2] = cited from earlier work
# [3] = po, read-out: Tumor Weight Ratio (T/C : %)
smiles,measurement,setting,value
"C#CCO[C@H]1C[C@H](n2cc(C(F)(F)F)c(=O)[nH]c2=O)O[C@@H]1COC(=O)CN1CCN(CCCCCCCCC)CC1.Cl.Cl [Example 11, 5'-O-{2-(4-nonylpiperazin-1-yl)acetyl}-3'-O-propargyl-α,α,α-trifluorothymidine dihydrochloride]",response vs control in vivo at 37 mg/kg,"Meth A fibrosarcoma; 37.0 mg/kg oral, day 1 - day 7, tumors weighed on day 14",58%
same,response vs control in vivo at 75 mg/kg,"Meth A fibrosarcoma; 75.0 mg/kg oral, day 1 - day 7, tumors weighed on day 14",31%
same,Body Weight Change,[1]; 37.0 mg/kg oral,0.6 g
same,Body Weight Change,[1]; 75.0 mg/kg oral,-2.7 g
"C#CCO[C@H]1C[C@H](n2cc(C(F)(F)F)c(=O)[nH]c2=O)O[C@@H]1CO[Si](C)(C)C(C)C [Example 7, 5'-O-isopropyldimethylsilyl-3'-O-propargyl-α,α,α-trifluorothymidine]",response vs control in vivo at 26 mg/kg,Meth A fibrosarcoma; [3],38%
same,response vs control in vivo at 52 mg/kg,Meth A fibrosarcoma; [3],25%
same,Body Weight Change,[1]; 26.0 mg/kg oral,-0.2 g
same,Body Weight Change,[1]; 52.0 mg/kg oral,-4.0 g
"C#CCO[C@H]1C[C@H](n2cc(C(F)(F)F)c(=O)[nH]c2=O)O[C@@H]1CO[Si](CC)(CC)CC [Example 13, 5'-O-(triethylsilyl)-3'-O-propargyl-α,α,α-trifluorothymidine]",response vs control in vivo at 27 mg/kg,Meth A fibrosarcoma; [3],57%
same,response vs control in vivo at 54 mg/kg,Meth A fibrosarcoma; [3],37%
same,Body Weight Change,[1]; 27.0 mg/kg oral,0.8 g
same,Body Weight Change,[1]; 54.0 mg/kg oral,-2.9 g
"O=c1[nH]c(=O)n([C@H]2C[C@H](O)[C@@H](CO)O2)cc1C(F)(F)F [Example F3Thd, Trifluorothymidine]",anti-tumor activity,L1210 leukemia,excellent anti-tumor activity
same,anti-tumor activity,adenocarcinoma-755,excellent anti-tumor activity
same,metabolism in the body,[2]; in vivo,rapidly metabolized in the body
same,absorption when administered orally,[2]; oral administration,not well absorbed when administered orally
"C#CCO[C@H]1C[C@H](n2cc(C(F)(F)F)c(=O)n(C(=O)c3ccccc3)c2=O)O[C@@H]1CO [Example 6, 3-benzoyl-3'-O-propargyl-α,α,α-trifluorothymidine]",response vs control in vivo at 22.7 mg/kg,"Meth A fibrosarcoma; 22.7 mg/kg oral, day 1 - day 7, tumors weighed on day 14",28.3%
same,response vs control in vivo at 68.1 mg/kg,"Meth A fibrosarcoma; 68.1 mg/kg oral, day 1 - day 7, tumors weighed on day 14",2.6%
same,Body Weight Change,[1]; 22.7 mg/kg oral,-3.8 g
same,Body Weight Change,[1]; 68.1 mg/kg oral,-4.7 g
"C#CCO[C@H]1C[C@H](n2cc(C(F)(F)F)c(=O)[nH]c2=O)O[C@@H]1COC(=O)[C@@H]1CCCN1CCCCCCCCCCCC.Cl [Example 14, 5'-O-(N-dodecyl-L-prolyl)-3'-O-propargyl-α,α,α-trifluorothymidine hydrochloride]",response vs control in vivo at 38 mg/kg,"Meth A fibrosarcoma; 38.0 mg/kg oral, day 1 - day 7, tumors weighed on day 14",32%
same,response vs control in vivo at 76 mg/kg,"Meth A fibrosarcoma; 76.0 mg/kg oral, day 1 - day 7, tumors weighed on day 14",15%
same,Body Weight Change,[1]; 38.0 mg/kg oral,-0.2 g
same,Body Weight Change,[1]; 76.0 mg/kg oral,-4.7 g
C#CCO[C@H]1C[C@H](n2cc(C(F)(F)F)c(=O)n(C(=O)c3ccco3)c2=O)O[C@@H]1CO [Example 47],response vs control in vivo at 25.6 mg/kg,"Meth A fibrosarcoma; 25.6 mg/kg oral, day 1 - day 7, tumors weighed on day 14",90.3%
same,response vs control in vivo at 76.9 mg/kg,"Meth A fibrosarcoma; 76.9 mg/kg oral, day 1 - day 7, tumors weighed on day 14",21.7%
same,Body Weight Change,[1]; 25.6 mg/kg oral,0.7 g
same,Body Weight Change,[1]; 76.9 mg/kg oral,-4.4 g
"C#CCO[C@H]1C[C@H](n2cc(C(F)(F)F)c(=O)[nH]c2=O)O[C@@H]1CO [Example 2, 3'-O-propargyl-α,α,α-trifluorothymidine]",response vs control in vivo at 17.3 mg/kg,"Meth A fibrosarcoma; 17.3 mg/kg oral, day 1 - day 7, tumors weighed on day 14",16.6%
same,response vs control in vivo at 51.9 mg/kg,"Meth A fibrosarcoma; 51.9 mg/kg oral, day 1 - day 7, tumors weighed on day 14",7.7%
same,Body Weight Change,[1]; 17.3 mg/kg oral,-0.5 g
same,Body Weight Change,[1]; 51.9 mg/kg oral,-4.9 g
C#CCO[C@H]1C[C@H](n2cc(C(F)(F)F)c(=O)[nH]c2=O)O[C@@H]1COC(=O)CCCCCCCCCCCCCCCCC [Example 29],response vs control in vivo at 18 mg/kg,"Meth A fibrosarcoma; 18.0 mg/kg oral, day 1 - day 7, tumors weighed on day 14",52%
same,response vs control in vivo at 71.9 mg/kg,"Meth A fibrosarcoma; 71.9 mg/kg oral, day 1 - day 7, tumors weighed on day 14",21%
same,Body Weight Change,[1]; 18.0 mg/kg oral,-1.2 g
same,Body Weight Change,[1]; 71.9 mg/kg oral,-6.9 g
C#CCO[C@H]1C[C@H](n2cc(C(F)(F)F)c(=O)n(C(=O)c3ccc(OC)cc3)c2=O)O[C@@H]1CO [Example 45],response vs control in vivo at 28 mg/kg,"Meth A fibrosarcoma; 28.0 mg/kg oral, day 1 - day 7, tumors weighed on day 14",64.6%
same,response vs control in vivo at 84.1 mg/kg,"Meth A fibrosarcoma; 84.1 mg/kg oral, day 1 - day 7, tumors weighed on day 14",6.9%
same,Body Weight Change,[1]; 28.0 mg/kg oral,1.3 g
same,Body Weight Change,[1]; 84.1 mg/kg oral,-4.5 g
"C#CCO[C@H]1C[C@H](n2cc(C(F)(F)F)c(=O)[nH]c2=O)O[C@@H]1CO[Si](C)(C)C(C)(C)C [Example 1, 5'-O-(t-butyldimethylsilyl)-3'-O-propargyl-α,α,α-trifluorothymidine]",response vs control in vivo at 13.4 mg/kg,Meth A fibrosarcoma; [3],67%
same,response vs control in vivo at 53.7 mg/kg,Meth A fibrosarcoma; [3],33%
same,Body Weight Change,[1]; 13.4 mg/kg oral,-0.3 g
same,Body Weight Change,[1]; 53.7 mg/kg oral,-4.9 g
